The target in data set [1] is T1, Solute carrier family 22 member 1 (Homo sapiens, UniProt O15245).
T1 sequence (O15245 whole entry): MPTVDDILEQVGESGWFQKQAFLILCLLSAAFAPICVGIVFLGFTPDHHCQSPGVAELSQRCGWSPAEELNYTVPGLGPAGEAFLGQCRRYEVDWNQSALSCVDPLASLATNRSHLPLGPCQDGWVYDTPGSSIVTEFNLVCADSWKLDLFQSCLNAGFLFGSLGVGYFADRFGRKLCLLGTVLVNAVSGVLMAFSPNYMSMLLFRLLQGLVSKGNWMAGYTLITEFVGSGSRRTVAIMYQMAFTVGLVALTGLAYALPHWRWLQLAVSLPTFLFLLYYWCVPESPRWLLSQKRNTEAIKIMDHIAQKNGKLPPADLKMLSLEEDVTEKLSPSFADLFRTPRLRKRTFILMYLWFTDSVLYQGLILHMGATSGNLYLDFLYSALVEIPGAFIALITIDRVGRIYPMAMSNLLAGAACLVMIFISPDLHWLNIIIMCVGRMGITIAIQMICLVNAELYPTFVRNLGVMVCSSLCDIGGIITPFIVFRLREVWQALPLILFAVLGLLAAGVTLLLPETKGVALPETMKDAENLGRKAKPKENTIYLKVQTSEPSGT
The experiment in a line: (§1) TP_TRANSPORTER: uptake in OCT1-expressing 293 cells. The format is functional, cell-based. The settings on record: hek293.

For data set [2], the target named is T2, Solute carrier family 22 member 1 (Rattus norvegicus, UniProt Q63089).
T2 sequence (Q63089 whole entry): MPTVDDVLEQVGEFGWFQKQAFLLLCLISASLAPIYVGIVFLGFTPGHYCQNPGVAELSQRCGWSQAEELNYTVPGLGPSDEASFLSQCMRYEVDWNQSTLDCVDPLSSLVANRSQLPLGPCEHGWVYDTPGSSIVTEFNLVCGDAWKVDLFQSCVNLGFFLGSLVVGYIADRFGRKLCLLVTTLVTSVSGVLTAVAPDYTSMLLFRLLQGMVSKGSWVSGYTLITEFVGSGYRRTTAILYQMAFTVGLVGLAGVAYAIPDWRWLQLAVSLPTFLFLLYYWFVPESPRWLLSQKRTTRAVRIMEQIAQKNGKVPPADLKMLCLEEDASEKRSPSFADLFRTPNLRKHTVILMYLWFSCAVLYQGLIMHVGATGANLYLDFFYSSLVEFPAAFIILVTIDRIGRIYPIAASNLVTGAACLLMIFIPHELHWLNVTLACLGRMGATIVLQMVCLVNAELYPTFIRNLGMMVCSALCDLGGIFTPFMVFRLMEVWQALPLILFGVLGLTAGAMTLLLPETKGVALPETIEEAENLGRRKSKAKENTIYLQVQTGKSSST
The data set is described as §1. It is filed as functional, cell-based. The conditions noted are these: human, hek293.

Data set [3] has as its target T1, Solute carrier family 22 member 1. In words: (§2) TP_TRANSPORTER: inhibition of uptake of 0.1 uM MPP+ in OCT1-expressing 293 cells. The format is functional, cell-based, HEK293.
Data set [4] has as its target T2, Solute carrier family 22 member 1. The description is as §2. It is filed as functional, cell-based, HEK293.
Data set [5] concerns the target T3, Solute carrier family 22 member 2 (Homo sapiens, UniProt O15244).
T3 sequence (O15244 whole entry): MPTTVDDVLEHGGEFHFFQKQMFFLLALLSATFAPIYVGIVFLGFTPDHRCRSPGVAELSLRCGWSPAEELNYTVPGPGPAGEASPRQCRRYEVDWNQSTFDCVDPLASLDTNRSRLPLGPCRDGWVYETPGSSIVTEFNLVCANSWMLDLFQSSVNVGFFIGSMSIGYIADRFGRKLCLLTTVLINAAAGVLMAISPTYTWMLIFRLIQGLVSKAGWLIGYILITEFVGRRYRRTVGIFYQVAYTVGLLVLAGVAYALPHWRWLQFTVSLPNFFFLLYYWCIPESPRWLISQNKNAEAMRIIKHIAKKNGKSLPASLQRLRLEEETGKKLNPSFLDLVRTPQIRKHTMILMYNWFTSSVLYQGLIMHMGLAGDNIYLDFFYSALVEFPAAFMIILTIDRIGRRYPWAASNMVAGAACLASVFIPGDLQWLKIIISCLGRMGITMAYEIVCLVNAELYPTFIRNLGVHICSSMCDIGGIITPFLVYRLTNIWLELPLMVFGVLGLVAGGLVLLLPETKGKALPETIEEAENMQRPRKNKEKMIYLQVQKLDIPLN
In words: (§3) TP_TRANSPORTER: uptake in OCT2-expressing 293 cells. It is filed as functional, cell-based. The conditions noted are these: hek293.

Data set [6] has as its target T4, Solute carrier family 22 member 2 (Rattus norvegicus, UniProt Q9R0W2).
T4 sequence (Q9R0W2 whole entry): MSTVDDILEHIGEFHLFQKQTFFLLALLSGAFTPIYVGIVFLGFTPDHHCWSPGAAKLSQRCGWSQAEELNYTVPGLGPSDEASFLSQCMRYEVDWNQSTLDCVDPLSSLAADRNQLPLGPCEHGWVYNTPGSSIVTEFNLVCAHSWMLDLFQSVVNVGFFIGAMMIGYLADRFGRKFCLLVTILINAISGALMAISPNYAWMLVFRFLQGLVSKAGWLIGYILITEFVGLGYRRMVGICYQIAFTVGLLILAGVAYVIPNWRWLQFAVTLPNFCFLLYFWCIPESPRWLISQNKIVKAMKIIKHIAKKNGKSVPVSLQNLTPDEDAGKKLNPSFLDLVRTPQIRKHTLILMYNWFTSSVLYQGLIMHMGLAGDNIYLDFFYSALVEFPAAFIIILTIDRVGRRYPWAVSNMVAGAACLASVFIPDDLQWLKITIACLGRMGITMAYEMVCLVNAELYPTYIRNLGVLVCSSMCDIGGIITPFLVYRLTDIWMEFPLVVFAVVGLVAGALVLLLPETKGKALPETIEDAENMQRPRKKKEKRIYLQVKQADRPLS
The data set is described as §3. The format is functional, cell-based. The conditions noted are these: human, hek293.

Data set [7] deals with T5, Solute carrier family 22 member 3 (Rattus norvegicus, UniProt O88446).
T5 sequence (O88446 whole entry): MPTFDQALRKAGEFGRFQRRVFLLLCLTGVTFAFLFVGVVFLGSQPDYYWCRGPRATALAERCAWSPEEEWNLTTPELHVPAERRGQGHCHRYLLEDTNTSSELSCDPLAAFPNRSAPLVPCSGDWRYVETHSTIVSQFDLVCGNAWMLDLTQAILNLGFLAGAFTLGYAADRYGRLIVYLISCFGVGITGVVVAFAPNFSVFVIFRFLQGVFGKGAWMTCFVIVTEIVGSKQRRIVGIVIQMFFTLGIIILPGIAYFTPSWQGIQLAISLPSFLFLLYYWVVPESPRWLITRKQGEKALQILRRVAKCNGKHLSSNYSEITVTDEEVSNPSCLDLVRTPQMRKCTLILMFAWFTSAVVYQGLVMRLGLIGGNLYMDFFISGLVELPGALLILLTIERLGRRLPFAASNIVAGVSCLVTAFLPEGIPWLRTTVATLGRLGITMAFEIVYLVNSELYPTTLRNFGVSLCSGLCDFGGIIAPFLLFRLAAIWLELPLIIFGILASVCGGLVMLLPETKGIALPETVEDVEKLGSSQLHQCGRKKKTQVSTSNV
The experiment in a line: (§4) TP_TRANSPORTER: uptake in OCT3-expressing 293 cells. The format is functional, cell-based. The settings on record: human, hek293.

Substrate in data set [8]: N=C(N)NCCCCN
Described as §3. The format is functional, cell-based, HEK293.

Substrate in data set [9]: N=C(N)NCCCCN
The description is as §4. It is filed as functional, cell-based, HEK293.

Take `N=C(N)NCCCCN` [AGMATINE]: the Activity entry in data set [1] and in [2] was “substrate []” each time. The values for the Ki in [3] and in data set [4] were 24 mM and 8.6 mM, respectively.

For `C[n+]1ccc(-c2ccccc2)cc1`, the Activity was 7.8 µM in data set [5]; “substrate []” in data set [6]; “substrate []” in [7]; 32 µM in [1]; “substrate []” in data set [2].

B1: Solute carrier family 22 member 2 (Rattus norvegicus) (protein)
chain: T4 sequence (Q9R0W2 whole entry)
In the case of B1, the Km in data set [8] was determined as 950 µM.

B2: Solute carrier family 22 member 3 (Rattus norvegicus) (protein)
chain: T5 sequence (O88446 whole entry)
Turning to B2, the Km in data set [9] is 900 µM.

B3: Solute carrier family 22 member 3 (Homo sapiens) (protein)
chain: MPSFDEALQRVGEFGRFQRRVFLLLCLTGVTFAFLFVGVVFLGTQPDHYWCRGPSAAALAERCGWSPEEEWNRTAPASRGPEPPERRGRCQRYLLEAANDSASATSALSCADPLAAFPNRSAPLVPCRGGWRYAQAHSTIVSEFDLVCVNAWMLDLTQAILNLGFLTGAFTLGYAADRYGRIVIYLLSCLGVGVTGVVVAFAPNFPVFVIFRFLQGVFGKGTWMTCYVIVTEIVGSKQRRIVGIVIQMFFTLGIIILPGIAYFIPNWQGIQLAITLPSFLFLLYYWVVPESPRWLITRKKGDKALQILRRIAKCNGKYLSSNYSEITVTDEEVSNPSFLDLVRTPQMRKCTLILMFAWFTSAVVYQGLVMRLGIIGGNLYIDFFISGVVELPGALLILLTIERLGRRLPFAASNIVAGVACLVTAFLPEGIAWLRTTVATLGRLGITMAFEIVYLVNSELYPTTLRNFGVSLCSGLCDFGGIIAPFLLFRLAAVWLELPLIIFGILASICGGLVMLLPETKGIALPETVDDVEKLGSPHSCKCGRNKKTPVSRSHL
As for B3, the Km in data set [9] amounted to 2500 µM.

B4: Solute carrier family 22 member 2 (Homo sapiens) (protein)
chain: T3 sequence (O15244 whole entry)
For B4, the Km in data set [8] is 1400 µM.

The values above are taken from ChEMBL document CHEMBL2073758, “Agmatine is efficiently transported by non-neuronal monoamine transporters extraneuronal monoamine transporter (EMT) and organic cation transporter 2 (OCT2)” (J Pharmacol Exp Ther, 2003).
